Here are results for 5 compounds from US8729254B2, “Derivative of glucose and vitamin F, compositions comprising it, uses and preparation process” (L'Oreal, priority 2002, dated 2014).

For data set [1] the following is noted: 0.1% by weight in ethanol/isopropanol/water (64/16/20 by volume), 45° C., 2 months; hydrolysed glucopyranose linoleate by HPLC.
Experimental: The stability of the compounds disclosed herein were assessed (measured by the hydrolysis of the esters).
Solutions comprising 0.1% by weight of the compounds in an ethanol/isopropanol/water mixture (64/16/20 by volume) were prepared. These solutions were left in a chamber thermostatically maintained at 45° C. for 2 months.
Data set [2] deals with T1, purified soybean 15-lipoxygenase L1 (Glycine max, UniProt P08170).
T1 sequence (P08170 1-839): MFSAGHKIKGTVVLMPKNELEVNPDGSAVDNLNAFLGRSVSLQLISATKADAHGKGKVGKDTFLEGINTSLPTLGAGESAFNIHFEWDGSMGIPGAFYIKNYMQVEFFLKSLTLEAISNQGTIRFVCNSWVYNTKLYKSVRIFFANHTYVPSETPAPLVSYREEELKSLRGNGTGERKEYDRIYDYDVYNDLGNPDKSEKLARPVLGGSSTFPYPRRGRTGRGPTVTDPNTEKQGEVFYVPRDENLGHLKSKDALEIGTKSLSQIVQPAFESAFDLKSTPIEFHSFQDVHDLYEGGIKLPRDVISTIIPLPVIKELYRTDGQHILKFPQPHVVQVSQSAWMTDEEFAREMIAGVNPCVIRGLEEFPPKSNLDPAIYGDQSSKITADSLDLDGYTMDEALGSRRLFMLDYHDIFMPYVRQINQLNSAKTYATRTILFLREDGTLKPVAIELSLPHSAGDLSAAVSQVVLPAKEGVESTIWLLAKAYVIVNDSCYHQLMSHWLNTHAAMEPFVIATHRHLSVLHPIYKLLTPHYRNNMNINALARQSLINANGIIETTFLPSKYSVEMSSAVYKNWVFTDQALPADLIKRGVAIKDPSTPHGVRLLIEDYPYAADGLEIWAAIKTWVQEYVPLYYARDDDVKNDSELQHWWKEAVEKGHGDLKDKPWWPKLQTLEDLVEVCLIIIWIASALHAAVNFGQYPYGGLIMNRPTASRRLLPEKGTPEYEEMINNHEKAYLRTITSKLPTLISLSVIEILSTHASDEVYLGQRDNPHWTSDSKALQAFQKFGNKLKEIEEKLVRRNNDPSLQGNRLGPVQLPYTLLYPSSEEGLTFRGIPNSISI
The data set can be described thus: inhibition of purified soybean 15-lipoxygenase (oxymeter, Vmax of oxygen consumption). Format: biochemical. Conditions: test compound at 1 mM, relative to the control (DMSO), 25° C., pH 7.5, average of 10 tests. The procedure:
The effect of the compounds of disclosed herein on the inhibition of purified soybean 15-lipoxygenase was thus tested, given that soybean 15-lipoxygenase is a study model commonly used as a predictive model for human 5-lipoxygenase.
The test performed was as follows:
preparation of a 100 mM, pH 7.5 Tris buffer solution
preparation of a suspension of purified soybean 15-lipoxygenase L1 (0.20 mg/ml) in a pH 7.5100 mM Tris buffer; storage in ice;
calibration of the oxymeter, tank equipped with a magnetic stirring system and thermostatically maintained at 25° C.;
preparation of an aqueous-alcoholic solution (absolute ethanol/water, 5/95, v/v) of potassium arachidonate at a concentration of 7.5 mM;
preparation of a solution of the test compound at a concentration of 30 mM in dimethyl sulphoxide (DMSO);
introduction into the oxymeter tank, with stirring, of 456.6 μl of buffer solution, 16.7 μl of potassium arachidonate solution and 16.7 μl of solution of the test compound or 16.7 μl of DMSO in the case of the “control” measurement.
The recorder was switched on and 10 μl of suspension of 15-lipoxygenase was introduced into the tank.
The maximum rate of consumption of oxygen (Vmax) was recorded.
The various Vmax values were compared with that of the control and the results were expressed as a % thereof. The test was repeated 10 times and an average of these 10 tests were determined.

One may read the inhibition as the percentage by which the read-out fell short of the control.

Molecules are shown by their SMILES.

In the case of `CCCCCC=CCC=CCCCCCCCC(=O)OC[C@H]1OC(O)[C@H](O)[C@@H](O)[C@@H]1O` (stereo partly drawn) [Compound A, 6-O-octadeca-9,12-dienoyl-D-glucopyranose], the “% of hydrolysis” value in data set [1] is on record as 7%. In data set [2], this compound had an inhibition at 1000 µM of 71%. `CCCCCCCCC=CCCCCCCCC(=O)OC[C@H]1OC(O)[C@H](O)[C@@H](O)[C@@H]1O` (stereo partly drawn) [Compound B, 6-O-octadeca-9-enoyl-D-glucopyranose] returned an inhibition at 1000 µM in data set [2] of 30%. Take `CCCCCCCCCCCCCCCCCC(=O)OC[C@H]1OC(O)[C@H](O)[C@@H](O)[C@@H]1O` (stereo partly drawn) [Compound C, 6-O-octadecanoyl-D-glucopyranose]: the inhibition at 1000 µM in data set [2] is 49%. On the same count and under the same terms, under `CCCCCCCCCCCCCCCC(=O)OC[C@H]1OC(O)[C@H](O)[C@@H](O)[C@@H]1O` (stereo partly drawn) [Compound D, 6-O-hexadecanoyl-D-glucopyranose] stands 15%. For `CCCCCC=CCC=CCCCCCCCC(=O)O[C@H]1[C@H](O)[C@@H](CO)OC(O)[C@@H]1O` (stereo partly drawn) [Compound E, 3-O-octadeca-9,12-dienoyl-D-glucopyranose], the “% of hydrolysis” value in data set [1] worked out at 30%. For the same compound, the inhibition at 1000 µM in data set [2] is 80%.
